Consider four molecules from patent US20240174617A1, “FPR2 (FORMYL PEPTIDE RECEPTOR 2)RECEPTOR AGONISTS AND THEIR USE IN THE TREATMENT OF THE AUTISM SPECTRUM DISORDER” (UNIVERSITA' DEGLI STUDI DI BARI ALDO MORO, priority 2021, published 2024).

Assay type in all cases: cell-based
The test system of series [1] is TNF-α release in mouse microglial N9 cells. Kind of series: TNF-α release (ELISA) in microglial N9 cells. As to the method:
(§1) The anti-inflammatory effect of the compounds (S)-4, (S)-7, (S)-8, (S)-9 and (S)-16 was determined by assessing its ability to affect the release of the pro-inflammatory cytokines IL-1β and TNF-α both in the cells under basal conditions and after stimulation with LPS. The mouse microglial N9 cells were seeded in a 96-well plate (2×10^4 cells/well) by using Iscove supplemented with 10% FBS as culture medium. The cells were then treated with different concentrations of the selected compounds (0.5-5 il.M) for 24 hours. The supernatant was then collected and the IL-1β and TNF-a levels were measured by using specific ELISA kits following the instructions of the supplier (R&D Systems, USA). […] Subsequently, the cells were pre-incubated with different concentrations of the selected compounds (0.5-5 μM) and then stimulated with LPS (100 ng/mL) for 24 hours. The control cells were treated with the carrier only. The IL-1β and TNF-α levels were determined as previously described. […] The specificity of the observed effect was assessed by co-incubating the cells with the FPR2 antagonist WRW4.
Background: ELISA stands for enzyme-linked immunosorbent assay.

Series [2] concerns mouse microglial N9 cells. The experiment in a line: cell viability (LDH assay) in microglial N9 cells. The settings on record: for LDH release activity (cytotoxic effect): basal conditions, 0.5-5 μM, 24 hours (FIG. 4); for cell mortality (LDH release), neuroprotective effect: pre-incubation 0.5-5 μM, then LPS (100 ng/mL) for 24 hours (FIG. 4). As to the method: Study of the effect of compounds (S)-4, (S)-5, (S)-7, (R)-8, (S)-8, (S)-9, (S)-12, (S)-15 and (S)-16 on the cell viability (LDH assay) in cultures of mouse microglial N9 cells.
The neuroprotective activity of the compounds (S)-4, (S)-5, (S)-7, (R)-8, (S)-8, (S)-9, (S)-12, (S)-15 and (S)-16 was assessed by determining its effect on the cell viability both under basal conditions and following stimulation with bacterial lipopolysaccharide (LPS) toxin. The mouse microglial N9 cells were seeded in a 96-well plate (2x10^4 cells/well) by using RPMI supplemented with 1% fetal bovine serum (FBS) as culture medium. The cells were incubated for 24 hours with different concentrations of the selected compounds (0.5-5 μM) to assess the potential cytotoxic effect of the compounds. The control cells were treated with the carrier only. To quantify the cell mortality, the level of lactate dehydrogenase (LDH) release after 24 hours of treatment was determined. The supernatant of the cell cultures was taken and incubated for 20 minutes at room temperature with the appropriate mixture of reagents according to the instructions of the supplier of the assessment kit (Cytotoxicity Detection Kit, Roche, Germany). The LDH release activity was determined as conversion of lactate to pyruvate by a colorimetric test (X=490 nm, Infinite 200 PRO Detector, TECAN, Switzerland). The LDH release activity is proportional to the 25 number of damaged cells. […] Subsequently, the cells were pre-incubated with different concentrations of the selected compounds (0.5-5 μM) and then stimulated with LPS (100 ng/mL) for 24 hours. The control cells were treated with the carrier only. The cell viability at the end 30 of 24 hours was assessed as previously described.
In general terms: Release of lactate dehydrogenase indicates damage to the cell membrane.

Series [3] has as its system IL-1β release in mouse microglial N9 cells. Kind of series: IL-1β release (ELISA) in microglial N9 cells. On the procedure:
as §1

The mark [4] stands for this setting: basal conditions, 0.5-5 μM, 24 hours (FIG. 6).
Setting [5] is: pre-incubation 0.5-5 μM, then LPS (100 ng/mL) for 24 hours (FIG. 6).
Setting [6] is: basal conditions, 0.5-5 μM, 24 hours (FIG. 5).
Setting [7] is: pre-incubation 0.5-5 μM, then LPS (100 ng/mL) for 24 hours (FIG. 5).

On to `N#Cc1ccc(C[C@H](NC(=O)Nc2ccc(F)cc2)C(=O)NC2CCCCNC2=O)cc1` (stereo partly drawn) [(S)-4, (2S)-3-(4-Cyanophenyl)-2-(3-(4-fluorophenyl)ureido)-N-(2-oxoazepan-3-yl)propanamide], for which the figures for the TNF-α release result in series [1] (setting [4]) and in series [1] (setting [5]) were “do not cause increased release of the two cytokines” and “reduce the release of inflammatory cytokines”, respectively. The “LDH release activity (cytotoxic effect)” value in series [2] is reported as “do not increase the LDH release activity”. Besides, the “cell mortality (LDH release), neuroprotective effect” value (from here on “cell mortality (LDH release)”) in series [2] is “reduce the cell mortality effect caused by the stimulation with LPS”. The IL-1β release result in series [3] (setting [6]) is listed as “do not cause increased release of the two cytokines”; in series [3] (setting [7]) it was “reduce the release of inflammatory cytokines”.
As to `N#Cc1ccc(C[C@H](NC(=O)Nc2ccc(F)cc2)C(=O)N2CCc3ccccc32)cc1` [(S)-7, (S)-1-(3-(4-Cyanophenyl)-1-(indolin-1-yl)-1-oxopropan-2-yl)-3-(4-fluorophenyl)urea], the TNF-α release entry in series [1] (setting [4]) is on record as “do not cause increased release of the two cytokines”; in series [1] (setting [5]), “reduce the release of inflammatory cytokines”. Besides, the “LDH release activity (cytotoxic effect)” value in series [2] is listed as “do not increase the LDH release activity”. Besides, the “cell mortality (LDH release)” value in series [2] is “reduce the cell mortality effect caused by the stimulation with LPS”. Besides, the IL-1β release result is given as “do not cause increased release of the two cytokines” in series [3] (setting [6]) and “reduce the release of inflammatory cytokines” in series [3] (setting [7]).
With `N#Cc1ccc(C[C@H](NC(=O)Nc2ccc(F)cc2)C(=O)N2CCc3ccc(F)cc32)cc1` [(S)-8, (S)-1-(3-(4-Cyanophenyl)-1-(6-fluoroindolin-1-yl)-1-oxopropan-2-yl)-3-(4-fluorophenyl)urea], the TNF-α release entry is listed as “do not cause increased release of the two cytokines” in series [1] (setting [4]) and “reduce the release of inflammatory cytokines” in series [1] (setting [5]). In addition, the “LDH release activity (cytotoxic effect)” value in series [2] is listed as “do not increase the LDH release activity”. Also, the “cell mortality (LDH release)” value in series [2] is “reduce the cell mortality effect caused by the stimulation with LPS”. For the same molecule, the IL-1β release entry in series [3] (setting [6]) is listed as “do not cause increased release of the two cytokines”; in series [3] (setting [7]), “reduce the release of inflammatory cytokines”.
In the case of `N#Cc1ccc(C[C@H](NC(=O)Nc2ccc(F)cc2)C(=O)N2CCc3cc(F)ccc32)cc1` [(S)-9, (S)-1-(3-(4-Cyanophenyl)-1-(5-fluoroindolin-1-yl)-1-oxopropan-2-yl)-3-(4-fluorophenyl)urea], the figures for the TNF-α release result in series [1] (setting [4]) and in series [1] (setting [5]) were “do not cause increased release of the two cytokines” and “reduce the release of inflammatory cytokines”, respectively. Also, the “LDH release activity (cytotoxic effect)” value in series [2] is reported as “do not increase the LDH release activity”. Also, in series [2], the “cell mortality (LDH release)” value is reported as “reduce the cell mortality effect caused by the stimulation with LPS”. Also, the IL-1β release entry in series [3] (setting [6]) is recorded as “do not cause increased release of the two cytokines”; in series [3] (setting [7]), “reduce the release of inflammatory cytokines”.
